# Like-named read-outs stand apart in the source and are kept apart here. Marks after values point to notes of the source that are not given here. Where a SMILES comes first, the peptide text is derived from it. Bridges are numbered along the chain shown (N, C = ends). [ ]: non-standard residue; d: D form. The star is where a group is joined. X1 = CC[C@H](C)CCCCC(=O)*; Dab = NCC[C@H](N)C(=O)O
# Key:
# E. coli population = conditions: 75,000 IU/kg BW/day for 3-days; cited from earlier work
# Text: (§1) In this situation treatment is used to lower the number of resident E. coli in the gastrointestinal tract and control gut overgrowth, in a similar fashion to selective decontamination[37],[38]. As the outcome is not to achieve complete eradication (gut sterilisation), a lower effect than predicted by the PK/PD index critical value may be enough to reduce the bacterial burden within the gastrointestinal tract.
# [1] = 75,000 IU/kg BW/day for 3-days; cited from earlier work
# Text: as §1
# [2] = ref Bergen et al.[46], cited from earlier work
# Procedure: For the bacteriological response, the cumulative area under the curve of the total bacterial count over 24 h (AUCbact24h) was used. Data were then log10 transformed for regression. As LOQ was set at 100 CFU/mL, it was considered that re-growth would not occur if the total bacterial population decreased to this value. PK/PD indices are conventionally determined using protein unbound (free; f) concentration. Bergen et al.[46] indicated practical equivalence of total and unbound colistin in CAMHB (unbound fractions of 0.96 and 0.95 at 10 and 30 mg/L respectively). Furthermore, as colistin binding ...
# [3] = 1-compartment population intestinal PK model of colistin; format: in vivo, broiler chickens; conditions: for Amount of colistin base transit through the small intestine / Amount of colistin sulphate transit through the small intestine: Eq. (1)
# Procedure: Colistin (converted in mg/kg BW) was deposited in a dosing compartment (crop), either as a single bolus input representing an oral-gavage administration or as a daily zero-order input lasting 24 h representing a continuous dose via drinking water. The colistin content pooled jejunum and ileum content (expressed as mg colistin/kg intestinal content) was assumed to be well mixed and was fitted with a one-compartment model. The model was parametrised with 3 parameters: “clearance” that is here an intestinal flow rate (expressed in kg intestinal content/kg BW h^−1), “volume of distribution”, expressed in kg intestinal content/kg BW) and absorption rate constant for extravascular administration (Ka expressed in h^−1).
# Between subject variability (BSV) was applied to the clearance (Cl) described using an exponential model, as in the following general equation: Pi=tvP∗exp(ηPi) where tvP is the typical value of the parameter within the population and the random parameter ηPi (eta) represents the deviation from the typical value for the ith individual. Etas are assumed normally distributed with a mean of 0 and a variance of ω^2.
# For model evaluation, a significant decrease (> 6.635 corresponding to p < 0.01 for one degree of freedom) in the Bayesian information criterion (BIC) as well as observation of observed vs. population, individual predicted concentrations plots, and visual predictive checks (VPC) were utilized. All concentrations lower than the LOQ of the bioanalytical method (1.1 mg/kg) were considered as censored and managed with the M3 approach and using the Laplace engine by Phoenix™ v8.3.0.5005 (Certara, St. Louis, Missouri). Residual variability was described with a multiplicative error model, providing optimal fit compared to additive or additive/multiplicative models. Residual variability was low due to the single random effect on the clearance considering only a single-point for each bird (due to the nature of the destructive sampling) and the near normal distribution of the Etas. The final population model was evaluated using a Visual Predictive Check (VPC; n = 300) that compares observed with predicted quantiles (10th, 50th and 90th percentiles).
# [4] = Colistin activity loss after centrifugation of medium (colispot microbiological assay); format: in vitro ADME; conditions: colispot method
# [5] = Colistin concentration in luminal intestinal (jejunum and ileum) content, UHPLC-MS/MS; format: in vivo, Ross 308 broiler chickens; conditions: Ross 308 broiler; for tissue level at time at 54 h: po, jejunum and ileum content, 4 birds per timepoint, read-out: Geometric mean colistin concentration in luminal intestinal content
# Procedure: Pharmacokinetic data from in vivo clinical and supra-clinical doses via drinking water and oral gavage were collected as follows. Birds were provided a 14-h photoperiod aligned with onset of dosing (0 h) at 07:00. Birds were housed together upon arrival and separated at 13-days into the following dosing groups 75,000 IU/kg oral gavage (n = 17), 150,000 IU/kg oral gavage (n = 17), 75,000 IU/kg/day drinking water (n = 38), 100,000 IU/kg/day drinking water (n = 38), and 150,000 IU/kg/day drinking water (n = 38), the remaining birds constituted an untreated control group (n = 27) housed in another room. Colistin was administered as a single oral gavage via manual syringe directly into the crop, with the volume calculated based on bird weight immediately prior to dosing. For colistin administration via drinking water, dose was calculated based on average bird weight and water consumption measured the preceding day. It was refreshed every 24 h over the 3-day dosing. The “real” dose received every 24 h was back calculated based on measured water consumption for each dosing period.
# For administration via drinking water, 4 birds were sampled at each of the following timepoints pre-dose (0 h), during-dose (12, 36 and 54 h) and post-dose (72, 75, 76, 78, 84 and 96 h). Following oral gavage, 2 birds were sampled at each of the following timepoints 0 h (pre-dose), 1 h, 3 h, 6 h, 12 h, and 24 h (post-dose). Birds were sacrificed through cervical dislocation. The whole small intestine was excised from the duodenum to the large intestine, including the caeca, using individually wrapped and sterilised sets of dissection apparatus were used to avoid cross-contamination between birds. The jejunum and ileum were resected (between proximal ligature after duodenum, and distal ligature before the large intestine) and luminal intestinal content (LIC) was collected as an homogenous sample extracted from the small intestine via peristaltic massage in a proximal-to-distal direction as previously described, with the jejunum/ileum representing the principle compartment for potentially pathogenic E. coli (as compared to the large intestine). All samples were stored at − 80 °C prior to further analysis for no-more than 3 months. Following a previously validated method, colistin was extracted from the matrix using solid-phase extraction with a methanol:water (1:2; v/v) solution. Polymyxin B1 was used as an internal standard. Colistin A and colistin B, (main components of colistin), were separated, detected and measured using ultra-high-performance liquid chromatography coupled with tandem mass spectrometry (UHPLC-MS/MS). Total colistin was calculated as the ratio of the sum of peak areas of colistin A and B over the polymyxin B1 peak area.
# E. coli = conditions: ref EUCAST; cited from earlier work
# Procedure: Colistin is used in chickens for the treatment and metaphylaxis (following confirmation of disease within the flock) of susceptible (ECOFF = 2 mg/L) gastro-intestinal non-invasive E. coli infections. The dose recommended for administration via drinking water is 75,000 IU of colistin (as sulphate) per kg body weight per day for 3–5 consecutive days in Europe. As colistin is not absorbed from the gastrointestinal tract, its effect is exerted locally within the intestinal lumen and the wall of the intestine. As such, there is an opportunity to develop a PK model to predict the gut concentration t ...
# [6] = tested on: E. coli N100; mcr-negative; conditions: cited from earlier work
# Text: (§2) Supplement 41598_2023_39727_MOESM1_ESM.docx, table 2: Supplementary Table 2: Typical value (tv) and median parameter estimates and 95% confidence intervals of the semi-mechanistic model. | column: Typical value (tv) estimate; Median (Bootstrap) estimate
# E. coli 120h_B3_5; mcr-1 = conditions: cited from earlier work
# Text: as §2
# [7] = tested on: mcr-negative and mcr-positive E. coli isolates; conditions: cited from earlier work
# Text: as §2
# [8] = targeted dose 100,000 IU/kg BW/day
# [9] = targeted dose 150,000 IU/kg BW/day
# [10] = typical value, 1-compartment intestinal PK model
smiles,measurement,setting,value
"CC[C@H](C)CCCCC(=O)N[C@@H](CCN)C(=O)N[C@H](C(=O)N[C@@H](CCN)C(=O)N[C@H]1CCNC(=O)[C@H]([C@@H](C)O)NC(=O)[C@H](CCN)NC(=O)[C@H](CCN)NC(=O)[C@H](CC(C)C)NC(=O)[C@@H](CC(C)C)NC(=O)[C@H](CCN)NC1=O)[C@@H](C)O [colistin, colistin sulphate] (X1-[Dab]T[Dab][Dab][Dab][dL]L[Dab][Dab]T; lactam 4-C)",Reduction in the E. coli population,E. coli population,~1000 fold
same,Maximum intestinal concentrations,[1],greater than 5 mg/kg
same,Unbound fraction of colistin,[2]; in CAMHB at 10 mg/L,0.96
same,Unbound fraction of colistin,[2]; in CAMHB at 30 mg/L,0.95
same,Overall MTT in digestive tract (mean transit time crop to jejunum),[3]; secondary parameter,4.5 h
same,ka HL (entry rate half-life),[3]; secondary parameter,3.14 h
same,Amount of colistin base transit through the small intestine,"[3]; targeted dose 75,000 IU/kg BW/day","70,534 IU/kg BW/day"
same,Amount of colistin base transit through the small intestine,[3]; [8],"91,627 IU/kg BW/day"
same,Amount of colistin sulphate transit through the small intestine,[3]; [8],3.05 mg/kg BW/day
same,Amount of colistin base transit through the small intestine,[3]; [9],"139,935 IU/kg BW/day"
same,Amount of colistin sulphate transit through the small intestine,[3]; [9],4.66 mg/kg BW/day
same,"Cl (intestinal clearance), estimate (between subject variability %)",[3]; [10],29.1 (40.5%) g intestinal content/kg BW/h
same,V (intestinal volume of distribution),[3]; [10],5.14 g intestinal content/kg BW
same,ka (entry rate constant from crop to jejunum),[3]; [10],0.221 h⁻¹
same,Colistin activity loss following centrifugation,"[4]; from CAMHB, E. coli ATCC 25922 bacterial lawn (microbiological assay, not LCMS)",2%
same,Colistin activity loss following centrifugation,"[4]; from IGM (intestinal growth medium), binding to particulate matter, E. coli ATCC 25922 bacterial lawn",27%
same,tissue level at time at 1 h,"[5]; 75000 IU/kg, oral gavage 75,000 IU/kg, after 1 h, 2 birds per timepoint",21200 ng/g
same,tissue level at time at 3 h,"[5]; 150000 IU/kg, oral gavage 150,000 IU/kg, after 3 h, 2 birds per timepoint",45600 ng/g
same,tissue level at time at 54 h,"[5]; 75000 IU/kg/day, 75,000 IU/kg via drinking water",4890 ng/g
same,tissue level at time at 54 h,"[5]; 100000 IU/kg/day, 100,000 IU/kg via drinking water",6660 ng/g
same,tissue level at time at 54 h,"[5]; 150000 IU/kg/day, 150,000 IU/kg via drinking water",8600 ng/g
same,ECOFF,E. coli,2 mg/L
same,"F2 (potentiation factor for Kdrug on S1), typical value (tv) estimate",[6]; for mcr-negative isolates,12.66 scalar
same,"Emax (S1), typical value (tv) estimate","[6]; negative mcr isolates, Emax (S2) x F2",34.12** h^-1
same,"EC50_S1, typical value (tv) estimate","[6]; sub-population S1, reproduced PD parameters",0.083 mg/L
same,"EC50_S2, typical value (tv) estimate",[6]; sub-population S2,0.115 mg/L
same,"F2 (potentiation factor for Kdrug on S1), typical value (tv) estimate","E. coli 120h_B3_5; mcr-1; for mcr-positive isolates, calculated from covariate parameter",3.76* scalar
same,"Emax (S1), typical value (tv) estimate","E. coli 120h_B3_5; mcr-1; mcr-positive isolates, Emax (S2) x F2",10.13** h^-1
same,"EC50_S1, typical value (tv) estimate",E. coli 120h_B3_5; mcr-1; sub-population S1,2.760 mg/L
same,"EC50_S2, typical value (tv) estimate",E. coli 120h_B3_5; mcr-1; sub-population S2,2.174 mg/L
same,"Emax (S2), typical value (tv) estimate","[7]; both mcr-negative and mcr-positive isolates, maximal increase in kill effect",2.69 h⁻¹
same,"gamma_S1 (Hill coefficient), typical value (tv) estimate",[7]; sub-population S1,4.09 scalar
same,"gamma_S2 (Hill coefficient), median (bootstrap) estimate",[7]; sub-population S2,3.80 scalar
same,"gamma_S2 (Hill coefficient), typical value (tv) estimate",[7]; sub-population S2,3.22 scalar
